Measured values: patent publication US4264625A, “Pesticidal unsymmetrical bis-arylcarbamate sulfide compounds” (Union Carbide Corporation, priority 1978, dated 1981)

What was measured:
Format in all cases: in vivo
Tomato = settings: 2500 ppm spray, ten days, rating 1-5
Protocol: (§1) POST-EMERGENT HERBICIDAL TEST
(§2) Experiments were also conducted to determine the phytotoxicity of representative compositions with respect to healthy fresh plants. Solutions of the compounds were prepared as described above to provide a concentration of 2500 parts per million of the test compound. The test plants were sprayed in accordance with the procedure described above for the Mite Foliage Spray Test so as to deliver approximately 100 milliliters of test solution to the leaves of each plant tested. The sprayed plants and controls were set aside for approximately one hour to allow the solutions to dry and were then placed in the greenhouse. After ten days the plants were visually inspected to determine the extent of foliage injury. A rating of 1 indicates no perceptible injury; 5 indicates the plant was dead and ratings of 2, 3 and 4 indicate intermediate degrees of injury based upon the number and extent to which leaves were injured.

Cotton = settings: 2500 ppm spray, ten days, rating 1-5
Protocol: as §1, §2

Bean = settings: 2500 ppm spray, ten days, rating 1-5
Protocol: as §1, §2

Soybean = settings: 2500 ppm spray, ten days, rating 1-5
Protocol: as §1, §2

Corn = settings: 2500 ppm spray, ten days, rating 1-5
Protocol: as §1, §2

[1] = system: bean aphid (Aphis fabae Scop.); assay: Bean Aphid Foliage Spray Test; set-up: key: A: excellent control; B: partial control; C: no control; settings: 500 ppm foliage spray, 24 hours, mortality rating
Protocol: (§3) Suspensions of the test compounds were prepared by dissolving one gram of compound in 50 milliliters of acetone in which had been dissolved 0.1 gram (10 percent of the weight of compound) of an alkylphenoxy polyethoxyethanol surfactant, as an emulsifying or dispersing agent. The resulting solution was mixed into 150 milliliters of water to give roughly 200 milliliters of a suspension containing the compound in finely divided form. The thus-prepared stock suspension contained 0.5 percent by weight of compound. The test concentrations in parts per million by weight employed in the tests described hereinbelow were obtained by appropriate dilutions of the stock suspension with water. The test procedures were as follows:
Bean Aphid Foliage Spray Test
Adults and nymphal stages of the bean aphid (Aphis fabae Scop.) reared on potted dwarf nasturtium plants at 65°-70° F. and 50-70 percent relative humidity, constituted the test insects. For testing purposes, the number of aphids per pot was standardized to 100-150 by trimming plants containing excess aphids.
The test compounds were formulated by diluting the stock suspension with water to give a suspension containing 500 parts of test compound per million parts of final formulation.
The potted plants (one pot per compound tested) infested with 100-150 aphids, were placed on a revolving turntable and sprayed with 100-110 milliliters of test compound formulation by use of a DeVilbiss spray gun set at 40 psig. air pressure. This application, which lasted 25 seconds, was sufficient to wet the plants to run-off. As a control, 100-110 milliliters of a water-acetone-emulsifier solution containing no test compound were also sprayed on infested plants. After spraying, the pots were placed on their sides on a sheet of white standard mimeograph paper which had been previously ruled to facilitate counting. Temperature and humidity in the test room during the 24 hour holding period were 65°-70° F. and 50-70 percent, respectively. Aphids which fell onto the paper and were unable to remain standing after being uprighted were considered dead. Aphids remaining on the plants were observed closely for movement and those which were unable to move the length of the body upon stimulation by prodding were considered dead. Percent mortality was recorded for various concentration levels.
(§4) In these tests the pesticidal activity of the compounds against aphid, mite, Southern Armyworm, Bean Beetle and house fly was rated as follows: […]

[2] = system: Mexican bean beetle (Epilachna varivestis, Muls.); assay: Mexican Bean Beetle Leaf Spray Test; set-up: key: A: excellent control; B: partial control; C: no control; settings: 500 ppm leaf spray, fourth instar larvae, three days, mortality rating
Protocol: as §3
Mexican Bean Beetle Leaf Spray Test
Fourth instar larvae of the Mexican bean beetle (Epilachna varivestis, Muls.), reared on Tendergreen bean plants at a temperature of 80°±5° F. and 50±5 percent relative humidity, were the test insects.
The test compounds were formulated by diluting the stock suspension with water to give a suspension containing 500 parts of test compound per million parts of final formulation. Potted Tendergreen bean plants of standard height and age were placed on a revolving turntable and sprayed with 100-110 milliliters of test compound formulation by use of a DeVilbiss spray gun set at 10 psig air pressure. This application, which lasted 25 seconds, was sufficient to wet plants to run-off. As a control, 100-110 milliliters of a water-acetone-emulsifier solution containing no test compound were also sprayed on infested plants. When dry, the paired leaves were separated and each was placed in a 9 centimeter Petri dish lined with moistened filter paper. Five randomly selected larvae were introduced into each dish, and the dishes were closed. The closed dishes were labeled and held at a temperature of 80°±5° F. for three days. Although the larvae could easily consume the leaf within 24 to 48 hours, no more food was added. Larvae which were unable to move the length of the body, even upon stimulation, were considered dead.
as §4

[3] = system: southern armyworm (Prodenia eridania, (Cram.)); assay: Southern Armyworm Leaf Spray Test; set-up: key: A: excellent control; B: partial control; C: no control; settings: 500 ppm leaf spray, larvae, three days, mortality rating
Protocol: as §3
Southern Armyworm Leaf Spray Test
Larvae of the southern armyworm (Prodenia eridania, (Cram.)), reared on Tendergreen bean plants at a temperature of 80°±5° F. and a relative humidity of 50±5 percent, constituted the test insects.
The test compounds were formulated by diluting the stock suspension with water to give a suspension containing 500 parts of test compound per million parts of final formulation. Potted Tendergreen bean plants of standard height and age were placed on a revolving turntable and sprayed with 100-110 milliliters of test compound formulation by use of a DeVilbiss spray gun set at 10 psig air pressure. This application, which lasted 25 seconds, was sufficient to wet plants to run-off. As a control, 100-110 milliliters of a water-acetone-emulsifier solution containing no test compound were also sprayed on infested plants. When dry, the paired leaves were separated and each one was placed in a 9 centimeter Petri dish lined with moistened filter paper. Five randomly selected larvae were introduced into each dish and the dishes were closed. The closed dishes were labeled and held at 80°-85° F. for three days. Although the larvae could easily consume the whole leaf within twenty-four hours, no more food was added. Larvae which were unable to move the length of the body, even upon stimulation by prodding, were considered dead. Percent mortality was recorded for various concentration levels.
as §4

[4] = system: two-spotted mite (Tetranychus urticae Koch); assay: Mite Foliage Spray Test; set-up: key: A: excellent control; B: partial control; C: no control; settings: 500 ppm foliage spray, six days, mortality rating
Protocol: as §3
Adults and nymphal stages of the two-spotted mite (Tetranychus urticae Koch), reared on Tendergreen bean plants at 80±5 percent relative humidity, were the test organisms. Infested leaves from a stock culture were placed on the primary leaves of two bean plants six to eight inches in height, growing in a two-and-a-half inch clay pot. 150-200 Mites, a sufficient number for testing, transferred from the excised leaves to the fresh plants in a period of twenty four hours. Following the twenty four hour transfer period, the excised leaves were removed from the infested plants. The test compounds were formulated by diluting the stock suspension with water to give a suspension containing 500 parts of test compound per million parts of final formulation. The potted plants (one pot per compound) were placed on a revolving turntable and sprayed with 100-110 milliliters of test compound formulation by use of a DeVilbiss spray gun set at 40 psig. air pressure. This application, which lasted 25 seconds, was sufficient to wet the plants to run-off. As a control, 100-110 milliliters of a water solution containing acetone and emulsifier in the same concentrations as the test compound formulation, but containing no test compound, were also sprayed on infested plants. The sprayed plants were held at 80±5 percent relative humidity for six days, after which a mortality count of motile forms was made. Microscopic examination for motile forms was made on the leaves of the test plants. Any individual which was capable of locomotion upon prodding was considered living.
as §4

[5] = system: house flies (Musca domestica, L.); assay: Fly Bait Test; set-up: key: A: excellent control; B: partial control; C: no control; settings: 500 ppm in sugar-solution bait, 24 hours, mortality rating
Protocol: as §3
Four to six day old adult house flies (Musca domestica, L.) reared according to the specifications of the Chemical Specialties Manufacturing Association (Blue Book, McNair-Dorland Co., N.Y. 1954; pages 243-244, 261) under controlled conditions of 80°±5° F. and 50±5 percent relative humidity, were the test insects. The flies were immobilized by anesthetizing with carbon dioxide and twenty five immobilized individuals, males and females, were transferred to a cage consisting of a standard food strainer about five inches in diameter which was inverted over a wrapping-paper-covered surface. The test compounds were formulated by diluting the stock suspension with a 10 percent (by weight) sugar solution to give a suspension containing 500 parts of test compound per million parts of final formulation, by weight. Ten milliliters of the test formulation were added to a souffle cup containing a one-inch square of an absorbent cotton pad. This bait cup was introduced and centered on the blotting paper under the food strainer prior to admitting the anesthetized flies. The caged flies were allowed to feed on the bait for twenty four hours, at a temperature of 80°±5° F. and the relative humidity of 50±5 percent.
as §4

With `CCCCCCCCCc1ccc(OC(=O)N(C)SN(C)C(=O)Oc2cccc3ccccc23)cc1` the “Phytotoxicity, Tomato” value (Tomato) was 1, the “Phytotoxicity, Cotton” value (Cotton) was 1 and the “Phytotoxicity, Bean” value (Bean) was 1. The “Phytotoxicity, Soybean” value (Soybean) was 1, the “Phytotoxicity, Corn” value (Corn) was 1 and the “Pesticidal Activity, Aphid” value [1] was “C”. The “Pesticidal Activity, Mexican Bean Beetle” value [2] was “A”, the “Pesticidal Activity, Southern Armyworm” value [3] was “A” and the “Pesticidal Activity, Mite” value [4] was “C”. The “Pesticidal Activity, House fly” value [5] was “C”.
With `CN(SN(C)C(=O)Oc1ccccc1C1SCCS1)C(=O)Oc1ccccc1C1SCCS1` the “Phytotoxicity, Tomato” value (Tomato) was 1, the “Phytotoxicity, Cotton” value (Cotton) was 1 and the “Phytotoxicity, Bean” value (Bean) was 1. The “Phytotoxicity, Soybean” value (Soybean) was 1, the “Phytotoxicity, Corn” value (Corn) was 1 and the “Pesticidal Activity, Aphid” value [1] was “A”. For the same compound, the “Pesticidal Activity, Mexican Bean Beetle” value [2] was “A”, the “Pesticidal Activity, Southern Armyworm” value [3] was “A” and the “Pesticidal Activity, Mite” value [4] was “C”. The “Pesticidal Activity, House fly” value [5] was “A”.
In the case of `CCCCCCCCCCCCc1ccc(OC(=O)N(C)SN(C)C(=O)Oc2cccc3ccccc23)cc1`, the “Phytotoxicity, Tomato” value (Tomato) was 1, the “Phytotoxicity, Cotton” value (Cotton) was 1 and the “Phytotoxicity, Bean” value (Bean) was 1. The “Phytotoxicity, Soybean” value (Soybean) was 1, the “Phytotoxicity, Corn” value (Corn) was 1 and the “Pesticidal Activity, Aphid” value [1] was “C”. The “Pesticidal Activity, Mexican Bean Beetle” value [2] was “A”, the “Pesticidal Activity, Southern Armyworm” value [3] was “A” and the “Pesticidal Activity, Mite” value [4] was “C”. The “Pesticidal Activity, House fly” value [5] was “C”.
With `Cc1cc(OC(=O)N(C)SN(C)C(=O)Oc2ccc(N=CN(C)C)c(C)c2)ccc1N=CN(C)C` [drawing 39] the “Phytotoxicity, Tomato” value (Tomato) was 1, the “Phytotoxicity, Cotton” value (Cotton) was 1 and the “Phytotoxicity, Bean” value (Bean) was 2. For the same compound, the “Phytotoxicity, Soybean” value (Soybean) was 2, the “Phytotoxicity, Corn” value (Corn) was 1 and the “Pesticidal Activity, Aphid” value [1] was “A”. For the same compound, the “Pesticidal Activity, Mexican Bean Beetle” value [2] was “A”, the “Pesticidal Activity, Southern Armyworm” value [3] was “A” and the “Pesticidal Activity, Mite” value [4] was “A”. The “Pesticidal Activity, House fly” value [5] was “A”.
